What all share (test): growth of human tumour cells (NCI), 48 h
The test system of test [1] is A498.
Test [2] has as its system HCC 2998.
In test [3] the test system is HCT-15.
For test [4], the system named is Hs-578T.
The test system of test [5] is K562.
The subject of test [6] is MCF7.
In test [7] the test system is MDA-MB-231.
In test [8] the test system is MDA-N.
In test [9] the test system is NCI-H23.
Test [10] has as its system OVCAR-3.
For test [11], the system named is OVCAR-5.
The subject of test [12] is SF-295.
Test [13] relates to SF-539.
For test [14], the system named is SK-MEL-2.
For test [15], the system named is SN12C.
In test [16] the test system is SW-620.
Test [17] relates to T47D.
Test [18] deals with TK-10.
Test [19] has as its system UACC-257.
In test [20] the test system is UACC-62.

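These data come from cells grown in 96-well plates and exposed to compound for 48 hours at five concentrations. GI50 marks 50% less growth.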 Active and inactive are the calls of the source. No stated cut-off is given here; in the data, active = GI50 up to about 1.1 µM and inactive = higher.

For `Sc1nc2c(c(-c3nc(S)nc4c3CCCCCCCCCC4)n1)CCCCCCCCCC2`, the GI50 in test [1] was > 100 µM (inactive); in test [2], > 100 µM (inactive); in test [3], > 100 µM; in test [4] it was > 100 µM (inactive); in test [5] it was > 100 µM (inactive); in [6], > 100 µM (inactive). Also, the GI50 in test [7], in test [8], in [9], in test [10], in test [11] and in [12] was > 100 µM (inactive) in each case. The GI50 in test [13], in test [14], in test [15], in test [16], in [17] and in [18] was > 100 µM (inactive) in each case. Moreover, the GI50 in [19] and in test [20] was > 100 µM (inactive) in each case.
In the case of `COC(=O)C(Cc1c[nH]c2ccccc12)NP(=O)(O)OCC1OC(n2cc(F)c(=O)[nH]c2=O)CC1O` (stereo not given), the GI50 in [1] was 0.964 µM (active); in test [2], 99.3 µM (inactive); in [3] it was > 100 µM; in test [4] it was > 100 µM (inactive); in test [5], > 100 µM (inactive); in [6], 7.35 µM (inactive). In addition, the GI50 is > 100 µM (inactive) in [7]; > 100 µM (inactive) in [8]; > 56 µM (inactive) in test [9]; > 100 µM (inactive) in test [10]; > 100 µM (inactive) in [11]; > 91.2 µM (inactive) in [12]. Further, the GI50 in [13] is 4.71 µM (inactive); in test [14], > 100 µM (inactive); in test [15], > 64.4 µM (inactive); in [16], > 100 µM (inactive); in test [17], > 32.5 µM (inactive); in test [18] it was > 100 µM (inactive). Moreover, the GI50 in [19] is > 100 µM (inactive); in [20] it was > 26.5 µM (inactive).
In the case of `COc1ccc2oc(=O)c3c(c2c1C)OC(C)(C)C=C3`, the GI50 in test [1] was > 100 µM (inactive); in [2], > 100 µM (inactive); in test [3], > 100 µM; in test [4], > 100 µM (inactive); in test [5] it was > 100 µM (inactive); in [6], > 100 µM (inactive). The GI50 in test [7], in test [8], in test [9], in [10], in test [11] and in [12] was > 100 µM (inactive) each time. Also, the GI50 in test [13], in [14], in test [15], in test [16], in [17] and in [18] was > 100 µM (inactive) each time. Moreover, the GI50 in [19] and in test [20] was > 100 µM (inactive) in each case.
In the case of `COc1cc2c(NCCCCCCO[N+](=O)[O-])ncnc2c(OC)c1OC`, the GI50 was 18.1 µM (inactive) in [1]; 0.399 µM (active) in test [2]; 24 µM in test [3]; 29.2 µM (inactive) in test [4]; 29.2 µM (inactive) in test [5]; 17.6 µM (inactive) in test [6]. For the same compound, the GI50 in [7] is 14.2 µM (inactive); in test [8], 20.6 µM (inactive); in test [9], 19.1 µM (inactive); in [10], 23.1 µM (inactive); in test [11], 30.2 µM (inactive); in test [12], 21.1 µM (inactive). The GI50 was 24.7 µM (inactive) in test [13]; 21.6 µM (inactive) in test [14]; 28.7 µM (inactive) in [15]; 26.2 µM (inactive) in test [16]; 23.8 µM (inactive) in [17]; 20.9 µM (inactive) in [18]. Besides, the figures for the GI50 in [19] and in test [20] were 17.8 µM (inactive) and 18.2 µM (inactive), respectively.
As for `CCCCCCCC1C(C)c2c([nH]c3ccccc23)C2C(=O)N(c3ccc(OC)cc3)C(=O)C21` (stereo not given), the GI50 was 2.67 µM (inactive) in test [1]; 7.6 µM (inactive) in test [2]; > 7.76 µM in test [3]; 2 µM (inactive) in test [4]; 3.11 µM (inactive) in [5]; 4.6 µM (inactive) in test [6]. The GI50 is 3.82 µM (inactive) in [7]; 4.22 µM (inactive) in [8]; 2.39 µM (inactive) in [9]; 2.48 µM (inactive) in test [10]; > 10 µM (inactive) in test [11]; 2.58 µM (inactive) in [12]. For the same compound, the GI50 in test [13] was 2.69 µM (inactive); in test [14], > 6.59 µM (inactive); in [15], 2.59 µM (inactive); in [16], 3.02 µM (inactive); in test [17] it was 3.79 µM (inactive); in [18] it was 2.38 µM (inactive). Further, the GI50 was 2.64 µM (inactive) in test [19] and 4.24 µM (inactive) in test [20].
For the compound `CCOC(=O)C1C(=O)CC(O)(c2ccccc2)C(C(=O)OCC)C1c1ccc(N(C)C)cc1` (stereo not given), the GI50 in test [1] is 31.6 µM (inactive); in [2], 34.4 µM (inactive); in test [3], 34.7 µM; in [4], 2.1 µM (inactive); in test [5], 6.21 µM (inactive); in [6] it was 21.8 µM (inactive). For the same compound, the GI50 is 28.2 µM (inactive) in test [7]; 6.44 µM (inactive) in [8]; > 45.7 µM (inactive) in test [9]; 24 µM (inactive) in test [10]; 74.3 µM (inactive) in test [11]; 5.71 µM (inactive) in [12]. Further, the GI50 in test [13] was 18.1 µM (inactive); in test [14], 33 µM (inactive); in [15], 50.2 µM (inactive); in test [16], 19.8 µM (inactive); in test [17], 27.6 µM (inactive); in [18], > 59.8 µM (inactive). The GI50 in test [19] is 63.8 µM (inactive); in test [20] it was 33.4 µM (inactive).
Regarding `COc1cc(/C=C2/SC(c3ccccc3)N(c3ccc(Cl)cc3)C2=O)cc(OC)c1OC` (stereo not given), the GI50 is > 80 µM (inactive) in test [1]; > 100 µM (inactive) in [2]; 8.13 µM in [3]; > 100 µM (inactive) in [4]; 0.244 µM (active) in test [5]; 3.96 µM (inactive) in [6]. The GI50 in [7] is > 100 µM (inactive); in [8] it was 2.37 µM (inactive); in test [9], 17.9 µM (inactive); in test [10] it was 80.5 µM (inactive); in [11], > 100 µM (inactive); in test [12], 3.27 µM (inactive). Besides, the GI50 was > 100 µM (inactive) in [13]; > 20.6 µM (inactive) in test [14]; > 32 µM (inactive) in test [15]; 57.4 µM (inactive) in test [16]; 3.94 µM (inactive) in test [17]; > 100 µM (inactive) in [18]. Also, the figures for the GI50 in test [19] and in test [20] were 47.2 µM (inactive) and 2.02 µM (inactive), respectively.
As for `Cn1cc(S(=O)(=O)NC(=O)Nc2ccc(Cl)cc2)c2ccccc21`, the GI50 in test [1] is > 100 µM (inactive); in [2] it was 51.4 µM (inactive); in test [3], 4.5 µM; in test [4] it was > 100 µM (inactive); in [5], > 100 µM (inactive); in [6], 56 µM (inactive). In addition, the GI50 in test [7] is > 100 µM (inactive); in test [8] it was 27.4 µM (inactive); in test [9], > 100 µM (inactive); in test [10], > 100 µM (inactive); in test [11], 46.1 µM (inactive); in test [12], 43.6 µM (inactive). Further, the GI50 in test [13] was 11.1 µM (inactive); in test [14], 54.7 µM (inactive); in test [15] it was > 100 µM (inactive); in test [16] it was 50.6 µM (inactive); in [17] it was 28.6 µM (inactive); in [18] it was 21.4 µM (inactive). The results for the GI50 in [19] and in test [20] were > 100 µM (inactive) and 12.4 µM (inactive), respectively.
Regarding `CCOc1cc2c(=O)oc3c(OC)ccc4ccc(c1OC)c2c43`, the GI50 was > 100 µM (inactive) in [1]; 77.3 µM (inactive) in test [2]; > 100 µM in test [3]; 44.8 µM (inactive) in test [4]; > 100 µM (inactive) in test [5]; > 100 µM (inactive) in test [6]. Also, the GI50 in [7] was 14.5 µM (inactive); in test [8] it was > 100 µM (inactive); in test [9], 73.5 µM (inactive); in test [10], > 100 µM (inactive); in test [11] it was > 100 µM (inactive); in test [12], 96.8 µM (inactive). Moreover, the GI50 in test [13], in test [14], in test [15], in test [16], in test [17] and in test [18] was > 100 µM (inactive) throughout. The GI50 in [19] and in test [20] was > 100 µM (inactive) throughout.
Turning to `O=[N+]([O-])c1cc(F)ccc1S(=O)(=O)c1ccccc1`, the GI50 in test [1] was > 10 µM (inactive); in test [2], > 10 µM (inactive); in test [3], > 10 µM; in test [4], > 10 µM (inactive); in test [5], > 10 µM (inactive); in test [6], > 10 µM (inactive). Also, the GI50 in test [7], in test [8], in test [9], in [10], in test [11] and in test [12] was > 10 µM (inactive) each time. The GI50 in test [13], in [14], in [15], in [16], in test [17] and in test [18] was > 10 µM (inactive) in each case. Also, the GI50 in [19] and in test [20] was > 10 µM (inactive) in each case.

(Values after ChEMBL document CHEMBL1201862, “PubChem BioAssay data set” (2004).)
